According to paper PMC9138505, “Small Molecule 20S Proteasome Enhancer Regulates MYC Protein Stability and Exhibits Antitumor Activity in Multiple Myeloma” (Biomedicines, 2022):
Where “and” joins values, the source holds several entries; their conditions need not be identical. Identical values can stand only once.

Assays:
L363 cells = assay: Cell viability, CellTiter-Glo, 72 h; assay type: cell-based; settings: Homo sapiens, L-363; L363, 72 h
Procedure: (§1) RPMI-8226, L363 and NCI-H929 cells were obtained from ATCC (Manassas, VA, USA) and were maintained in RPMI medium supplemented with 10% fetal bovine serum, and 100 U/mL penicillin/streptomycin, at 37 °C with 5% CO2. DMSO was used as the compound vehicle or vehicle control at a 0.1% final concentration for both cell culture and enzyme assay.
(§2) Error bars represent SD for triplicate wells.

NCI-H929 cells = assay: Cell viability, CellTiter-Glo, 72 h; assay type: cell-based; settings: Homo sapiens; NCI-H929, 72 h; CI by 3-parameter curve
Procedure: as §1, §2

[1] = tested on: primary human MM cells of newly diagnosed patient; assay: Primary cell viability, CellTiter-Glo, 72 h
Description: (§4) White blood cells (WBCs) were separated from red blood cells by the Ficoll density gradient. Multiple myeloma cells were then isolated from WBCs using human CD138 affinity magnetic beads (Miltenyi Biotec; cat#130-093-062; Gaithersburg, MD, USA) following the manufacturer’s protocol. Cells were cryopreserved in 10% DMSO in FBS. Revived cells were maintained in an RPMI medium with 10% FBS for 10 days prior to treatment. […] Cells were equilibrated to RT and CellTiter-Glo (Promega; Madison, WI, USA) solution (100 μL) was added and incubated with shaking for 10 min at RT. The assay plate was then allowed to equilibrate for 5 min at RT and luminescent readings were taken on a SpectraMax® M5. Data are presented as a percentage of the vehicle control for each experimental condition, after background subtraction. Error bars represent SD for triplicate wells.

[2] = tested on: primary cells from a BTZ refractory MM patient; assay: Primary cell viability, CellTiter-Glo, 72 h; settings: Homo sapiens
Description: as §4

[3] = tested on: MYC Reporter (Luc)-HCT-116 cells; assay: MYC-Luc reporter assay; assay type: cell-based
Procedure: The MYC Reporter (Luc)-HCT-116 Cell line, Catalog #60520, was bought from BPS Bioscience. MYC reporter (Luc)-HCT-116 cells were seeded in a white, clear bottom, 96-well microplate at 25,000 cells/well, in McCoy’s 5A media supplemented with 10% FBS and 1% penicillin/streptomycin. The plate was incubated at 37 °C with 5% CO2 overnight. The next day, cells were treated with 0.0 µM, 0.1 µM, 1.0 µM, 2.5 µM, 5.0 µM, 10 µM, or 20 µM TCH-165, in Opti-MEM supplemented with 0.5% FBS, 1% non-essential amino acids, 1 mM Sodium Pyruvate and 1% penicillin/streptomycin. The plate was incubated at 37 °C with 5% CO2 for 16 h. Firefly luminescence was measured using the One-Step Luciferase Assay System from BPS Biosciences.

c-MYC = c-MYC degradation ELISA in L363 cells; assay type: cell-based, human; settings: various concentrations, 4 h
Procedure: ELISA: c-MYC degradation in L363 and H929 cells. L363 cells were grown in T-25 flasks in RPMI-1640 medium supplemented with 15% heat-inactivated fetal bovine serum (FBS) and 1% penicillin/streptomycin at 37 °C and 5% CO2. H929 cells were grown in T-25 flasks in RPMI-1640 medium supplemented with 10% FBS, 0.05 mM 2-mercaptoethanol, and 1% penicillin/streptomycin. Cells were treated with DMSO, TCH-165, or bortezomib (BTZ) at the indicated concentrations for 4 h (0.1% final DMSO concentration). Following the 4-hour treatment, cells were pelleted, washed with chilled PBS buffer, and resuspended in chilled lysis buffer (10 mM Tris, 100 mM NaCl, 1 mM EDTA, 1 mM EGTA, 1 mM NaF, 20 mM Na4P2O7, 2 mM Na3VO4, 1% Triton X-100, 10% glycerol, 0.1% SDS, and 0.5% deoxycholate; pH 7.4) supplemented with Complete Mini Protease Inhibitor Cocktail (Sigma Aldrich). The lysate was clarified by centrifugation at 5000 rpm (4 °C) for 15 min. Total protein of the lysate was quantified by bicinchoninic acid assay (BCA assay, Thermofisher Scientific; Waltham, MA, USA). and normalized to 1.5 mg/mL total protein. The supplied protocol for the human c-MYC (Total) ELISA Kit (Invitrogen; Waltham, MA, USA) was used to determine the total c-MYC concentration of the lysates. Prior to loading lysate into ELISA plate wells, lysate (5 µL) was diluted into 45 µL of supplied standard diluent buffer.

[4] = tested on: RPMI-8226, L363 and H929 cells; assay: Assessment of apoptosis, Caspase-Glo 3/7 assay; assay type: cell-based, human; settings: all three MM cell lines, 24 h (Figure S1)
Procedure: Apoptosis was evaluated with the Caspase-Glo 3/7 assay kit (Promega; Madison, WI, USA) according to the manufacturer’s instructions. […] Staurosporine (81590, Cayman), an apoptosis inducer, was used as a positive control at 10 μM concentration for 3 h of incubation. After the incubation, the caspase reagent was added to the cells and incubated at 37 °C for 30 min. The luminescent signal was detected by the EnVision plate reader (PerkinElmer; Waltham, MA, USA) and the data were analyzed by Graph Pad Prism (9.2.0, Graph Pad Software Inc., San Diego, CA, USA).

[5] = tested on: proteasome, CT-L substrate Suc-LLVY-AMC, canine PBMC lysate; assay: Proteasome activity in canine PBMC lysate (target engagement); assay type: in vivo; settings: treated canines, 1920 mg BID
Procedure: Canine blood samples obtained in BD Vacutainer CPT mononuclear cell preparation tubes containing sodium citrate were used to isolate PBMCs. For PBMC isolation, sample tubes were inverted five times and equilibrated for the centrifuge with sterile PBS buffer. Tubes were centrifuged at 1800× g with the acceleration set at 5 and a break set to 0 at room temperature for 30 min. Half of the plasma layer was discarded. Using a sterile Pasteur pipette, the buffy coat was collected and put into a 15 mL conical tube and sterile PBS buffer was added to 10 mL. The conical tubes were centrifuged at 300× g for 10 min and the supernatant was removed. Cells were resuspended in 150 µL of lysis buffer (50 mM Tris-HCl, 2 mM Na2ATP, 5 mM MgCl2, 0.5 mM EDTA, 10% glycerol) and lysed by vortex. Samples were centrifuged for 20 min at 14,000× g. The total protein concentration of the supernatant was determined using bicinchoninic acid assay (BCA assay), and the samples were normalized to 1 mg/mL. Samples were diluted to 0.036 µg/µL in assay buffer (38 mM Tris, 100 mM NaCl, pH 7.8) and 140 µL of the diluted sample was added to three wells of a black, clear-bottom 96-well plate. Substrate stock solution (10 µL of 375 µM Suc-LLVY-AMC in assay buffer) was added to each well. Fluorescence was measured and kinetic readings were taken every 5 min at 37 °C, at 380/440 nm for 1 h.

[6] = Pharmacokinetic assessment in CD-1 mice; assay type: in vivo; settings: for Cmax / Tmax: po, 100 mg/kg
Procedure: The PK study was carried out with CD-1 mice (males, 6–8 weeks of age, n = 3 per treatment group) weighing between 24.9 g to 33.7 g immediately prior to dosing. TCH-165 (100 mg/kg) was administered by oral gavage, as a homogeneous suspension in a 3:7 (v/v) propylene glycol: 5% dextrose as a vehicle. A second dose of 100 mg/kg TCH-165 was administered approximately 8 h post-initial gavage. Blood was collected at 0.5 h, 1 h, 2 h, 4 h, 8 h, 9 h, 10 h, 12 h, and 16 h post-initial gavage in lithium heparin tubes. Plasma was separated by centrifugation and analyzed using mass spectrometry.

[7] = Tolerance in dogs (clinical observations, body weight, CBC, clinical chemistry); assay type: in vivo, beagle dogs; settings: beagles
Procedure: (§3) Adult beagle dogs (male, 12 months of age, n = 3), weighing approximately 10 kg, received a […] of the test compound at 500 mg bid delivered in capsule form. Blood (approximately 2.5 mL) was collected into lithium heparin tubes at 0, 1 h, 2 h, 4 h, 8 h, and 24 h post-day 1 and post-day 5 dose for PK assessment using mass spectrometry. Blood (approximately 2 mL) was also collected and divided into EDTA and standard clot tubes on day 6 post-dose for determination of CBC and clinical chemistry parameters, respectively, and analyzed at the Michigan State University Veterinary Diagnostic Laboratory. Clinical observations were conducted daily on non-dosing days and twice on dosing days.

RPMI-8226 cells = assay: Cell viability, CellTiter-Glo, 72 h; assay type: cell-based, human; settings: RPMI-8226, 72 h
Procedure: as §1, §2

[8] = Pharmacokinetic assessment in dogs; assay type: in vivo; settings: male, beagle, dog
Procedure: as §3

[9] = blood, dogs, 50 mg/kg bid oral capsule

`CCOC(=O)[C@]1(c2ccccc2)N=C(c2ccc(OC)cc2)N(Cc2ccccc2)[C@@H]1c1ccc(NCc2ccccc2)cc1` [TCH-165] showed a CC50 (L363 cells) of 5000 nM, a CC50 (NCI-H929 cells) of 4300 nM and a CC50 [1] of 1000 nM. For the same compound, the CC50 [2] was 8100 nM, the EC50 ([3]; Homo sapiens, stably transfected HCT-116 cells, 16 h, 95% CI 2.46–2.95, read-out: EC50 of decrease of MYC-mediated luciferase transcription) was 2570 nM and the “MYC-mediated luciferase transcription with addition of bortezomib” value ([3]; TCH-165 3 μM after bortezomib 10 nM, 2 h pre-incubation) was “restored luciferase transcription back to the levels of the vehicle control”. For the same compound, the “MYC clearance (percent MYC remaining)” value (c-MYC) was “induced clearance of MYC”, the “induction of apoptosis (caspase 3/7 activity)” value [4] was “induction of apoptosis” and the “drug concentration by mass spectrometry” value [5] was 1400 nM and 1100 nM. The Cmax ([6]; male, CD-1, mouse, plasma, CD-1 mice, 100 mg/kg oral bid, second dose 8 h after the first, read-out: Cmax following the second dose) was 1430 ± 625 nM, the Tmax ([6]; male, CD-1, mouse, plasma, CD-1 mice, 100 mg/kg oral bid, second dose 8 h after the first, read-out: Tmax following the second dose) was 12 h and the Cmax ([6]; male, CD-1, mouse, plasma, CD-1 mice, 100 mg/kg oral gavage, plasma, read-out: Cmax following the first dose) was 932 ± 184 nM. For the same compound, the Tmax ([6]; male, CD-1, mouse, plasma, CD-1 mice, 100 mg/kg oral gavage, read-out: Tmax following the first dose) was 2 h, the AUC ([6]; male, CD-1, mouse, plasma, mice, means, 100 mg/kg bid oral, read-out: AUC (nM) (0-16 for mice)) was 14 µM·h and the AUC(0-t) ([6]; male, mouse, plasma, CD-1 mice, 100 mg/kg oral bid, trapezoidal method, read-out: mean AUC (0–16 h)) was 14 µM·h. The “metabolic lability of the ester moiety (by LC-MS)” value ([6]; mouse PK study) was “not metabolically labile”, the body weight change ([7]; 50 mg/kg bid oral capsule, five consecutive days) was less than 1% and the “clinical observations, body weight, complete blood counts and clinical chemistry panel compared to pre-dose status” value ([7]; 50 mg/kg bid oral capsule, five days) was “no significant changes”. For the same compound, the “notable change in the clinical chemistry profile” value ([7]; day 5 of administration) was “increase in plasma iron concentrations”, the CC50 (RPMI-8226 cells; Homo sapiens) was roughly 1000 nM and the CC50 (RPMI-8226 cells) was 900 nM. For the same compound, the Cmax [8, 9] was 1600 nM, the Tmax [8, 9] was 24 h and the Cmax ([8]; plasma, dogs (n=3), means, 50 mg/kg bid oral) was 1570 nM. For the same compound, the AUC ([8]; plasma, dogs (n=3), means, 50 mg/kg bid oral, read-out: AUC (nM) (0-24 for dogs)) was 19.8 µM·h.
